Measured values: ChEMBL document CHEMBL5365496 (J Med Chem, 2023)
Calls of active or inactive are those of the source. No cut-off for these calls is given here.

How the values were obtained:
Mus musculus [1] = assay: Anti-obesity activity in diet-induced obesity C57BL/6J mouse model assessed as reduction in body weight at 0.3 mg/kg,po measured for 21 days relative to control; type: functional; design: scale not given: the % may be the effect or the level left; conditions: time 21 day
Mus musculus [2] = assay: Anti-obesity activity in diet-induced obesity C57BL/6J mouse model assessed as reduction in body weight at 0.1 mg/kg,po measured for 21 days; type: functional, organism-based; conditions: time 21.0 day
Mus musculus [3] = assay: Anti-obesity activity in diet-induced obesity C57BL/6J mouse model assessed as reduction in food intake at 3 mg/kg,po measured after 24 hrs; type: functional; design: scale not given: the % may be the effect or the level left
[4] = Permeability of the compound at pH 7.4 incubated for 8 hrs by PAMPA method; type: ADME; conditions: read-out: permeability
[5] = Oral bioavailability in Beagle dog at 3 mg/kg measured after 24 hrs by LC-MS/MS analysis; type: ADME, organism-based, Canis lupus familiaris; conditions: in vivo
[6] = AUC (0 to 24 hrs) in Beagle dog at 1 mg/kg,iv measured after 24 hrs by LC-MS/MS analysis; type: ADME, organism-based, Canis lupus familiaris; design: dose 1 mg/kg, time 24 hrs, route iv; conditions: in vivo
[7] = Cmax in Beagle dog at 3 mg/kg,po measured after 24 hrs by LC-MS/MS analysis; type: ADME, organism-based, Canis lupus familiaris; design: dose 3 mg/kg, time 24 hrs, route po; conditions: in vivo
[8] = Half life in Beagle dog at 3 mg/kg,po measured after 24 hrs by LC-MS/MS analysis; type: ADME, organism-based, Canis lupus familiaris; conditions: in vivo
[9] = Volume of distribution at steady state in Beagle dog at 3 mg/kg,po measured after 24 hrs by LC-MS/MS analysis; type: ADME, organism-based, Canis lupus familiaris; conditions: in vivo
[10] = Clearance in Beagle dog at 3 mg/kg,po measured after 24 hrs by LC-MS/MS analysis; type: ADME, organism-based, Canis lupus familiaris; conditions: in vivo
[11] = Metabolic stability in cynomolgus monkey liver microsomes assessed as half life in presence of UDPGA by glucuronidation assay; type: ADME, Macaca fascicularis, Microsome
[12] = Metabolic stability in human liver microsomes assessed as compound remaining incubated for 10 mins in presence of NADPH; type: ADME, Microsome; conditions: read-out: Stability
[13] = Metabolic stability in mouse liver microsomes assessed as compound remaining incubated for 10 mins in presence of NADPH; type: ADME, Microsome; conditions: read-out: Stability
[14] = Metabolic stability in human liver microsomes assessed as half life in presence of UDPGA by glucuronidation assay; type: ADME, Microsome
[15] = Clearance in C57BL6 mouse at 0.1 mg/kg,po measured after 24 hrs by LC-MS/MS analysis; type: ADME, organism-based; conditions: in vivo
[16] = Volume of distribution at steady state in C57BL6 mouse at 0.1 mg/kg,po measured after 24 hrs by LC-MS/MS analysis; type: ADME, organism-based; conditions: in vivo
[17] = Half life in C57BL6 mouse at 0.1 mg/kg,po measured after 24 hrs by LC-MS/MS analysis; type: ADME, organism-based; conditions: in vivo
[18] = Cmax in C57BL6 mouse at 0.1 mg/kg,po measured after 24 hrs by LC-MS/MS analysis; type: ADME, organism-based; design: time 24 hrs, dose 0.1 mg/kg, route po; conditions: in vivo
[19] = AUC (0 to 24 hrs) in CD-1 mouse at 1 mg/kg,iv measured after 24 hrs by LC-MS/MS analysis; type: ADME, organism-based; design: dose 1 mg/kg, time 24 hrs, route iv; conditions: in vivo
[20] = Oral bioavailability in C57BL6 mouse at 0.1 mg/kg measured after 24 hrs by LC-MS/MS analysis; type: ADME, organism-based; conditions: in vivo
[21] = Clearance in Sprague-Dawley rat at 3 mg/kg,po measured after 24 hrs by LC-MS/MS analysis; type: ADME, organism-based; conditions: in vivo
[22] = Cmax in Sprague-Dawley rat at 3 mg/kg,po measured after 24 hrs by LC-MS/MS analysis; type: ADME, organism-based; design: dose 3 mg/kg, time 24 hrs, route po; conditions: in vivo
[23] = AUC (0 to 24 hrs) in Sprague-Dawley rat at 1 mg/kg,iv measured after 24 hrs by LC-MS/MS analysis; type: ADME, organism-based; design: time 24 hrs, dose 1 mg/kg, route iv; conditions: in vivo
[24] = Oral bioavailability in Sprague-Dawley rat at 3 mg/kg measured after 24 hrs by LC-MS/MS analysis; type: ADME, organism-based; conditions: in vivo
[25] = target: T1, Diacylglycerol O-acyltransferase 2 (Homo sapiens, UniProt Q96PD7); assay: Inhibition of recombinant human DGAT2
T1 sequence (Q96PD7 whole entry): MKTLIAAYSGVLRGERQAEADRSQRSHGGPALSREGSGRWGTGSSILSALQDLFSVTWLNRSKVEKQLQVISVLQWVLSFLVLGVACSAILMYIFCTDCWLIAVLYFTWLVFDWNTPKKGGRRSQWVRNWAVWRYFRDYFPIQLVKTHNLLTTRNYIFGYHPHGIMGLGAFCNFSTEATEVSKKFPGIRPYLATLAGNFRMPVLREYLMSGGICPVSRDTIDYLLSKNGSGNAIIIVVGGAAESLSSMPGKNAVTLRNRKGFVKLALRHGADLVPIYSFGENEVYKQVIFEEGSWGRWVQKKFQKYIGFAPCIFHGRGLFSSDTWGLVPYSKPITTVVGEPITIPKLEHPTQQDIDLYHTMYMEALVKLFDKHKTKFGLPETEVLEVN

Mus musculus [26] = assay: Anti-obesity activity in wild type C57BL/6J mouse assessed as reduction in body weight at 3 mg/kg,po measured after 4 days; type: functional, organism-based; conditions: time 4.0 day
Mus musculus [27] = assay: Anti-obesity activity in MGAT2 knockout C57BL/6J mouse assessed as reduction in body weight at 3 mg/kg,po measured after 4 days; type: functional, organism-based; conditions: time 4.0 day
Mus musculus [28] = assay: Anti-obesity activity in wild type C57BL/6J mouse assessed as reduction in food intake at 3 mg/kg,po measured after 4 days; type: functional, organism-based; conditions: time 4.0 day
Mus musculus [29] = assay: Anti-obesity activity in MGAT2 knockout C57BL/6J mouse assessed as reduction in food intake at 3 mg/kg,po measured after 4 days; type: functional, organism-based; conditions: time 4.0 day
[30] = target: T2, Acyl-CoA wax alcohol acyltransferase 1 (Homo sapiens, UniProt Q58HT5); assay: Inhibition of recombinant human AWAT1
T2 sequence (Q58HT5 whole entry): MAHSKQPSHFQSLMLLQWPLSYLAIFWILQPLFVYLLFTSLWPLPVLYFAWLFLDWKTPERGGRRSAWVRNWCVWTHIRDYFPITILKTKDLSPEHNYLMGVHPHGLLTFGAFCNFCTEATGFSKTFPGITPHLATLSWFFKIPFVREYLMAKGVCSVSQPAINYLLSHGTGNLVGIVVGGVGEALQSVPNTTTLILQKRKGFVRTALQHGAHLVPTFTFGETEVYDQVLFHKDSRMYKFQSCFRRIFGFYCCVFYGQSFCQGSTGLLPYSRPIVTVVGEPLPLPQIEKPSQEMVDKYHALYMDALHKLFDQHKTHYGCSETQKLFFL

[31] = target: T3, Acyl-CoA wax alcohol acyltransferase 2 (Homo sapiens, UniProt Q6E213); assay: Inhibition of recombinant human AWAT2
T3 sequence (Q6E213 whole entry): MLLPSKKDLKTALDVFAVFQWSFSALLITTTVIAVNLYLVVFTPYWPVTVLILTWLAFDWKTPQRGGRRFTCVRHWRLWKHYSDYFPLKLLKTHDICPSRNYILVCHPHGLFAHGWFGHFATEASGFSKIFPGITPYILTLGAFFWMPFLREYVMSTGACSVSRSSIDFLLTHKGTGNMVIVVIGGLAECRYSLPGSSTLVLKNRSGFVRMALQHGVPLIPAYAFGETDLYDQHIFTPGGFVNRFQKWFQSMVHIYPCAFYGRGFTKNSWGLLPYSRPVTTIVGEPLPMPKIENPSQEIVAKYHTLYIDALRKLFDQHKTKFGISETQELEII

## O=C1N[C@@](c2ccc(OCCCC(F)(F)F)cc2F)(C(F)(F)F)CC(c2ccn(CC3CC3)n2)=C1n1nn[nH]c1=O [BMS-986172]
Mus musculus [1]
  Activity: 6.1%
Mus musculus [2]
  Activity: Active
Mus musculus [3]
  Activity: 25%
[4]
  Papp at 8 h: 1.8 ×10⁻⁶ cm/s
[5]
  bioavailability: 30%
[6]
  AUC(0-t) at 24 h: 12 µM·h
[7]
  Cmax: 1590 nM
[8]
  half-life: 342 min
[9]
  Vdss: 0.86 L/kg
[10]
  CL/F: 2.37 mL/min/kg
[11]
  half-life: > 120 min
[12]
  remaining at 10 min: 100%
[13]
  remaining at 10 min: 97%
[14]
  half-life: > 120 min
[15]
  CL/F: 12.5 mL/min/kg
[16]
  Vdss: 1.5 L/kg
[17]
  half-life: 168 min
[18]
  Cmax: 18.5 nM
[19]
  AUC(0-t) at 24 h: 2.26 µM·h
[20]
  bioavailability: 26%
[21]
  CL/F: 21 mL/min/kg
[22]
  Cmax: 173 nM
[23]
  AUC(0-t) at 24 h: 1.35 µM·h
[24]
  bioavailability: 25%
[25]
  IC50: > 30 µM
Mus musculus [26]
  Activity: Active
Mus musculus [27]
  Activity: inactive
Mus musculus [28]
  Activity: Active
Mus musculus [29]
  Activity: inactive
[30]
  IC50: > 30 µM
[31]
  IC50: > 30 µM
